The source made the active and inactive calls. The calls are words filed in the database; no cut-off is given here.
Columns and labels:
[1] = target: T1, Progesterone receptor (Homo sapiens) (UniProt P06401); assay: Agonist activity at human PR expressed in human HepG2 cells assessed as MMTV gene promoter transactivation at 10 uM by measuring relative luciferase activity by transient transfection reporter assay relative to control; format: functional, cell-based
T1 sequence (whole entry): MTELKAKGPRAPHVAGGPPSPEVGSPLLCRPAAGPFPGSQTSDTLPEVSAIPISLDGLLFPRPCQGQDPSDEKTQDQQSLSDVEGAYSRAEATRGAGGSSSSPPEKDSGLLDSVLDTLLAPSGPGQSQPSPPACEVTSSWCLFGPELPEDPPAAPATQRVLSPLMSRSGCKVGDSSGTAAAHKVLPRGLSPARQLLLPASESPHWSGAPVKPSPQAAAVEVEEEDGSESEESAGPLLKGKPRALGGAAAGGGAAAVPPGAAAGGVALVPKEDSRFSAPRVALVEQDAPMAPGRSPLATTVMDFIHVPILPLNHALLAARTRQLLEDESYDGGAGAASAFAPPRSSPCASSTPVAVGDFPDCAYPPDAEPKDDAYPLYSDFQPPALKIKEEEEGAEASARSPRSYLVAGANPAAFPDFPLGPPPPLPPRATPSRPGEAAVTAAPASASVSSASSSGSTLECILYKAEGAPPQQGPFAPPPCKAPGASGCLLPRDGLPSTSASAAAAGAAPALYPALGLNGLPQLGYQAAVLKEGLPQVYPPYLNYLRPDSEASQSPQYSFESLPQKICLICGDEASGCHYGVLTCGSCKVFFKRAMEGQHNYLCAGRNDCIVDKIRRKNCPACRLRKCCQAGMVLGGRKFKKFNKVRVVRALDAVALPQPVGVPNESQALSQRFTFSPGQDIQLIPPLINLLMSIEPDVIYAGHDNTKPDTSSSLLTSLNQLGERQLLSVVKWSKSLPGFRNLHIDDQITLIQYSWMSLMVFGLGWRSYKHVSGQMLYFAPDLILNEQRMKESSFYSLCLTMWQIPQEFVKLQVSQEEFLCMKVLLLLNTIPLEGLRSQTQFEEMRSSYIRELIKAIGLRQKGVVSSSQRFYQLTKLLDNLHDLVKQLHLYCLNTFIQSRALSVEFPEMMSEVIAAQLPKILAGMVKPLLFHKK

[2] = target: Cellular tumor antigen p53 (Homo sapiens) (UniProt P04637); assay: Transactivation of p53 in human HepG2 cells expressing MDM2 promoter by transient transfection reporter assay; format: cell-based
HepG2 = assay: Cytotoxicity against human HepG2 cells; format: cell-based
[3] = target: T2, Bile acid receptor (Homo sapiens) (UniProt Q96RI1); assay: Antagonist activity at human FXR expressed in human HepG2 cells assessed as upregulation of CYP7A1 gene transactivation at 100 uM by measuring relative luciferase activity by transient transfection reporter assay relative to control; format: functional, cell-based
T2 sequence (whole entry): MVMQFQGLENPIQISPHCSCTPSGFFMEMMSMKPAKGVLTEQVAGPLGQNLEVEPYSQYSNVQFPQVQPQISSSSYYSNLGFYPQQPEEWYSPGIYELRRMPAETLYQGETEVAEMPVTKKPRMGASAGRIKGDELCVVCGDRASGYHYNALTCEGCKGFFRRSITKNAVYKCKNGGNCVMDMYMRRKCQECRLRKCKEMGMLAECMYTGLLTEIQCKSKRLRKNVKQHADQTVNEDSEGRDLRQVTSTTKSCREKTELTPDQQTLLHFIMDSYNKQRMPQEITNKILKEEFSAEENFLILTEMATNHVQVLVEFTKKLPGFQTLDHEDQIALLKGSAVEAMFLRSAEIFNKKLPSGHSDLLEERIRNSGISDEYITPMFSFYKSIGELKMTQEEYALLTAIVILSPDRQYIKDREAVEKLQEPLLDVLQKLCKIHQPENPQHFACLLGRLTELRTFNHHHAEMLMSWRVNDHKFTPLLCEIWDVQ

[4] = target: T2, Bile acid receptor (Homo sapiens); assay: Antagonist activity at human FXR expressed in human HepG2 cells assessed as inhibition of CDCA-induced transactivation of SHP gene at 100 uM by measuring relative luciferase activity by transient transfection reporter assay relative to control; format: functional, cell-based
[5] = target: T2, Bile acid receptor (Homo sapiens); assay: Antagonist activity at human FXR expressed in human HepG2 cells assessed as inhibition of CDCA-induced transactivation of SHP gene at 50 uM by measuring relative luciferase activity by transient transfection reporter assay relative to control; format: functional, cell-based
[6] = target: T2, Bile acid receptor (Homo sapiens); assay: Antagonist activity at human FXR expressed in human HepG2 cells assessed as inhibition of CDCA-induced transactivation of SHP gene by measuring relative luciferase activity by transient transfection reporter assay relative to control; format: functional, cell-based
[7] = target: T2, Bile acid receptor (Homo sapiens); assay: Antagonist activity at human FXR expressed in human HepG2 cells assessed as inhibition of CDCA-induced transactivation of SHP gene at 10 uM by measuring relative luciferase activity by transient transfection reporter assay relative to control; format: functional, cell-based
[8] = target: T2, Bile acid receptor (Homo sapiens); assay: Antagonist activity at human FXR expressed in human HepG2 cells assessed as upregulation of CYP7A1 gene transactivation at 10 uM by measuring relative luciferase activity by transient transfection reporter assay relative to control; format: functional, cell-based
[9] = target: T1, Progesterone receptor (Homo sapiens); assay: Agonist activity at human PR expressed in human HepG2 cells assessed as MMTV gene promoter transactivation at 100 uM by measuring relative luciferase activity by transient transfection reporter assay relative to control; format: functional, cell-based
[10] = target: T2, Bile acid receptor (Homo sapiens); assay: Agonist activity at human FXR expressed in human HepG2 cells assessed as transactivation of SHP gene at 400 uM by measuring relative luciferase activity by transient transfection reporter assay; format: functional, cell-based

Sequence of Cellular tumor antigen p53 (Homo sapiens) (P04637 whole entry, looked up): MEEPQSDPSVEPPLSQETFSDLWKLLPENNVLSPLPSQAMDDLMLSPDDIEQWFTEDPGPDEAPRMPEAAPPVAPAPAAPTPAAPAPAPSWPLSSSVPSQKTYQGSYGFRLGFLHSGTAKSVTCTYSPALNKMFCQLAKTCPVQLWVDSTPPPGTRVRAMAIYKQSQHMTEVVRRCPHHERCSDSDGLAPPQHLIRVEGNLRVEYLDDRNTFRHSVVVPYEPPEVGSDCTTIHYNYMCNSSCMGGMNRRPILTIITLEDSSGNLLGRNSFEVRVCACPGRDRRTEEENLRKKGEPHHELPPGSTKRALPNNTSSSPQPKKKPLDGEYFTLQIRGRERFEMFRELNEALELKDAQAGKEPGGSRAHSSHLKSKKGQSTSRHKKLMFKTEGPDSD

Structure (SMILES)	RLU [1]	Activity [2]	Activity (HepG2)	fold change (FC) [3]	RLU [4]	inhibition [5]	inhibition [6]	RLU [7]	fold change (FC) [8]	Activity [9]	Activity [10]	RLU [9]
CC(=O)[C@H]1CC[C@H]2[C@@H]3CCC4=CC(=O)CC[C@]4(C)[C@H]3CC[C@]12C	2.38	–	–	–	–	–	–	–	–	–	–	–
C=C1CCC[C@]2(C)C=C3OC(=O)C(C)=C3C[C@@H]12 [ATRACTYLENOLIDE I]	–	Active	Toxic	–	–	–	–	–	–	–	–	–
C=C1CCC[C@]2(C)C[C@@H]3OC(=O)C(C)=C3C[C@@H]12	–	–	–	2	0.9	50%	Dose-dependent effect	1.5	1.5	inactive	inactive	–
C=C1CCC[C@]2(C)C[C@]3(O)OC(=O)C(C)=C3C[C@@H]12	1.57	–	–	–	0.85	50%	Dose-dependent effect	1.7	1.5	–	inactive	3.39

Reference: ChEMBL document CHEMBL2203190, “Sesquiterpenoids from Atractylodes macrocephala act as farnesoid X receptor and progesterone receptor modulators” (Bioorg Med Chem Lett, 2012)
